Measurements reported in patent US10266549B2, “ULK1 inhibitors and methods using same” (SALK INSTITUTE FOR BIOLOGICAL STUDIES, priority 2014, dated 2019).

What was measured:
WT ULK1 = WT ULK1 (Homo sapiens (Human), UniProt O75385); experiment: in vitro kinase assay, WT ULK1, MBP substrate, radiolabeled ATP; format: biochemical; conditions: 10-μM MBP, 30-μM γ-32P-ATP; triplicate, ten-dose, 3-fold serial dilution from 1 μM
Experimental: WT ULK1 (left) and WT ULK2 (right) were assayed using 10-μM MBP in the presence of 30-μM radiolabeled γ-^32P-ATP.
To further examine how ULK1 regulates autophagy, we sought to identify small molecule ATP competitive kinase inhibitors of ULK1. Screening a library of chemical compounds for inhibitors of ULK1 kinase activity in vitro, we identified a lead compound that was further elaborated through a medicinal chemistry effort to produce compound 14. […] To further characterize the ability of compound 14 and related derivatives to inhibit ULK1 in cells, we tested the ability of these compounds to inhibit the phosphorylation of Vps34 Ser249 when epitope-tagged Vps34 was co-expressed in HEK293T cells with a wild-type ULK1 cDNA. Screening 40 compounds, we found compound 14 inhibited P-Vps34 on overexpressed Vps34 when used at ˜5 μM (FIG. 7B). We next examined the sensitivity of phosphorylation of Vps34 Serine 249 versus Beclin Serine 15 to two structurally distinct ULK1 inhibitors, when cDNAs bearing each were introduced into HEK293T cells. […] (FIG. 11A).

panel of 456 kinases = experiment: DiscoveRx KINOMEscan competition binding assay; parameters: species or system human
Experimental: FIG. 7E: (top) The kinase selectivity profile for compound 14 was determined using the DiscoveRx KINOMEscan profiling service. Briefly, compound 14 was screened at a 1-μM dose for its ability to impair binding of a panel of 456 kinases to substrate in an in vitro binding assay. Scores for the primary screen hits are reported as a percent of the DMSO control (% Control). Lower scores reflect stronger inhibitory effects of compound 14 on the target kinase. Compound 14 was very selective, only inhibiting 8 kinases >95% and 19 kinases >90% when tested at 10 μM. (bottom) In vitro kinase assays were performed for selected kinases. These assays were performed in the presence of compound 14 in a dose-response manner to identify the IC50 value for compound 14 for each of these individual kinases. […] Of the remaining kinases, those kinases which IC50 value was less than what was identified from ULK2 are highlighted in brown.
Kinase inhibitor specificity profiling assays were first carried out using DiscoveRx KINOMEscan competition binding assay against a panel of 456 kinases (www dot discoverx dot corn) using 1 μM compound 14.
We next examined the specificity of compound 14 using the DiscoveRx KINOMEscan panel of 456 purified human kinases and subsequent competition binding assay.

A549 lung cancer cells [1] = experiment: AnnexinV apoptosis analysis in A549 cells with mTOR inhibitor; format: cell-based
Experimental: A549 cells (ATCC #CCL185) and MEFs were seeded at a concentration of 2.5×10^5 cells/mL (i.e., 750,000 cells per 6 cm dish), grown overnight (18 hrs) and treated as indicted in the figure legends. Unless otherwise indicated, “starvation” is EBSS and “control” is DMEM with full serum for indicated timepoints. Samples for western blot were washed once in 1× ice cold PBS and lysed in boiling SDS lysis buffer (10 mM Tris […], 100 mM NaCl, 1% SDS). After trituration, lysates were equilibrated for protein levels using the BCA method (Pierce) and resolved on 8 to 15% SDS-PAGE gels, depending on the size of the protein. PVDF membranes were probed with indicated antibodies overnight according to the manufacturers instructions.
For flow cytometry analysis, cells were collected at the appropriate time point, washed once in PBS, trypsinized and pelleted. For Annexin V staining, cells were washed in 1× Annexin V buffer and treated as described by the Annexin V staining protocol (BD Pharmingen, San Diego, Calif.). Briefly, cells were resuspended in Annexin V buffer to a concentration of one million per mL, 100,000 cells were then stained with 5 μL of phycoerythrin (PE)-conjugated Annexin V antibody (BD Pharmingen, San Diego, Calif.) and 5 μL of 7-amino-actinomycin D (7AAD) and then incubated at room temperature for 15 minutes. 400 μL of Annexin V buffer was then added to each sample with gentle mixing. Stained cells were analyzed using a FACScan flow cytometer (Becton Dickinson, San Jose, Calif.). Flow cytometry data was analyzed using FlowJo 8.6 software (Tree Star Inc., Ashland, Oreg.).
There has been great interest in the role of autophagy in the survival of tumor cells, particular tumor cells faced with metabolic stress from chemotherapies or targeted therapeutics. We next examined whether compound 14 would promote apoptosis in tumor cells similar to the MEFs, selectively under conditions in which autophagy is actively engaged. […] Given that mTOR activity is a dominant regulator of ULK1 activity, and we previously noted that treatment of cells with mTOR catalytic inhibitors was sufficient to induce ULK1 activity, we examined the effect of adding in the ULK1 inhibitor in the context of treatment with mTOR catalytic inhibitors. Using a cell line well-established to be sensitive to mTORC1 inhibition, A549 lung cancer cells, we treated with escalating doses of ULK1 inhibitor while keeping a constant cytostatic growth arrest-inducing 1 micromolar dose of the mTOR catalytic inhibitor AZD8055. We observed that 5 μM compound 14 in combination with AZD8055 triggered apoptosis in 22% of A549 cells compared to 9% of the 5 μM compound 14 alone or 6% of those cells treated with AZD8055 alone. […]

A549 lung cancer cells [2] = experiment: Cyto-ID autophagy detection in A549 cells; format: cell-based; conditions: A549, 5 μM for 2 hr then 4 μM AZD8055 for 24 hr
Experimental: FIG. 9E is an immunoflourescence imaging of A549 cells treated in the presence or absence of 5 μM compound 14 for 2 hr followed by 4 μM of the mTOR catalytic inhibitor AZD8055 for 24 hr. Autophagic vacuoles were detected using the Cyto-ID autophagy detection kit and are visualized in green, while cell nuclei were counterstained by DAPI and are visualized in blue.
To test the ability of compound 14 to block autophagy and cell survival, initial studies were performed in A549 lung cancer cells, which are highly sensitive to mTOR inhibition. […] Next, we genetically assessed the requirement for ULK1 versus other kinases inhibited by compound 14 to induce autophagy after pharmacological mTOR inhibition. A robust high-throughput microscopy method for quantifying GFP-LC3 puncta was established using a PC3 prostate-cancer cell line stably expressing a GFP-LC3 construct. Using this assay, we performed a focused RNAi analysis of the top 20 kinases identified in the DiscovRx screen as best binding to compound 14. […] Strikingly, of the 18 kinases tested, only one kinase siRNA, ULK1, nearly fully abolished the LC3 puncta induced by the mTOR inhibitors (FIG. 9D).

[3] = panel of 456 kinases, tested at 10 μM as printed (method says 1 μM)

WT ULK1, sequence (O75385 whole entry): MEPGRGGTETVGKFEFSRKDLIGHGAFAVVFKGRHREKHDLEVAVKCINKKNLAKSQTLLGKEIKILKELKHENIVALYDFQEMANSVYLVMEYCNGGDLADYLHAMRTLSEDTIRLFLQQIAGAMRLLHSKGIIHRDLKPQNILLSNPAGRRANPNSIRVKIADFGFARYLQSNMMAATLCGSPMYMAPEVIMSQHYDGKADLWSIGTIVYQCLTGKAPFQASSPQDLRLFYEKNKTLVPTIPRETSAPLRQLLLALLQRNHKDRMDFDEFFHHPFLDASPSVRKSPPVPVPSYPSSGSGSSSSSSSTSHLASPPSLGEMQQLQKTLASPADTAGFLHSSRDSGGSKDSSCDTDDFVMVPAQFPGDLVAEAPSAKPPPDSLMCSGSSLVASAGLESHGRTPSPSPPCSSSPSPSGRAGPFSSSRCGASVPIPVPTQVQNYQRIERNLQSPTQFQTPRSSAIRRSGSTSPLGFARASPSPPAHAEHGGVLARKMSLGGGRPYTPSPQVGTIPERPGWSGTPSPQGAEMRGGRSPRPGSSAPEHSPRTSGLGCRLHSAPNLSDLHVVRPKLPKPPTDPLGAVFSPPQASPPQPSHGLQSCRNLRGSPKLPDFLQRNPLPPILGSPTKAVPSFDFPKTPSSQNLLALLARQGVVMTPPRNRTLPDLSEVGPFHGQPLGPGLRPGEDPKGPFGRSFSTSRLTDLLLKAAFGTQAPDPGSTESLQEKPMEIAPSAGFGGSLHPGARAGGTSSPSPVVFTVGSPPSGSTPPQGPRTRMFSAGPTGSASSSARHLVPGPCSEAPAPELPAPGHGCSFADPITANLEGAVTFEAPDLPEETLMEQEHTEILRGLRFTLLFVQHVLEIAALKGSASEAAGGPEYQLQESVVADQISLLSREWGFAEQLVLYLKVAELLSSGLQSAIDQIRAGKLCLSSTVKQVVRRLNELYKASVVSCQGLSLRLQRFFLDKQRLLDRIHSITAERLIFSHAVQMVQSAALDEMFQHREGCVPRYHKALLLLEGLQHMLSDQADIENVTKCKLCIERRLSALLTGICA

## CNC(=O)c1ccccc1Nc1nc(Nc2cc(OC)c(OC)c(OC)c2)ncc1Br [compound 14, 2-(5-bromo-2-(3,4,5-trimethoxyphenylamino)pyrimidin-4-ylamino)-N-methylbenzamide]
WT ULK1
  IC50: 0.107 µM
Panel of 456 kinases; (number of non-mutant kinases with % Ctrl <35)/(number of non-mutant kinases tested)
  S(35) selectivity index: 0.123
Panel of 456 kinases; [3]
  number of kinases inhibited >90%: 19
  number of kinases inhibited >95%: 8
A549 lung cancer cells [1]; 5 μM compound 14 alone
  apoptosis, % of A549 cells: 9%
A549 lung cancer cells [1]; 5 μM compound 14 in combination with 1 micromolar AZD8055
  apoptosis, % of A549 cells: 22%
A549 lung cancer cells [1]; 10 or 20 μM compound 14 with AZD8055
  induction of Annexin-V+ apoptotic A549 cells: even more dramatically heightened
A549 lung cancer cells [2]
  AZD8055-induced autophagy (Cyto-ID autophagy dye accumulation): strongly suppressed
